{"source": "patent US20080262080A1", "about": "“Allergy Suppressive Agent” (KYUSHU UNIVERSITY, NATIONAL UNIVERSITY CORPORATION, priority 2004, published 2008)", "key": {"[1]": {"system": "blood antibody level (IgM, IgG, IgA, IgE)", "assay": "Blood antibody level of mice antigen-sensitized with ovalbumin (OVA) after chrysin intake (ELISA)", "format": "in vivo, mouse", "experimental": "Male BALB/c mice aged 8 weeks were divided into an AIN-93M-fed group (a control group) and a chrysin-comprising AIN-93M-fed group. After feeding with the individual feeds for 3 weeks, both groups were fed with the AIN-93M feed for 2 weeks. Each feed was given at a ratio of 5 g/day/animal while the animals were allowed to take water ad libitum. OVA-sensitization was conducted by injecting 100 μg of OVA/aluminum hydroxide gel into the peritoneal cavity of each mouse 1 and 2 weeks after the initiation of the feed, i.e., twice in total. On day 35, blood samples were collected and the total IgM, IgG and IgE levels in the serum were measured by ELISA. Reagents employed in ELISA for quantifying the antibody were as follows. In blocking, use was made of PBS comprising 1% of bovine serum albumin (Roche) (BSA-PBS). As solid phase antibodies, use was made of F(ab′)2 goat anti-mouse IgG antibody (Zymed Laboratories, Inc.), F(ab′)2 rabbit anti-mouse IgM antibody (Zymed Laboratories, Inc.) and rabbit anti-mouse IgA (Zymed Laboratories, Inc.). As secondary antibodies, use was made of HRP-labeled F(ab′)2 goat anti-mouse IgG(H(L) antibody (Zymed Laboratories, Inc.), HRP-labeled rabbit anti-mouse IgM antibody (Zymed Laboratories, Inc.) and HRP-labeled goat anti-mouse IgA antibody (Zymed Laboratories, Inc.). 2,2′-Anizo-bis(3-ethylbenzothiazoline-6-sulfonic acid) diammonium salt (ABTS) employed as a color development substrate was purchased from Wako Pure Chemical Industries, while oxalic acid was purchased from Nacalai tesque (Kyoto, Japan). A solid phase antibody solution (diluted 1000-fold with a 50 mM carbonate buffer) was pipetted into an immunoplate at a ratio of 100 μL/well and allowed to stand overnight at 4° C. After washing thrice with PBS comprising 0.1% of polyoxyethylene sorbitan monolaurate (Nacalai tesque) (TPBS), 300 μL/well of BSA-PBS was pipetted and incubation was conducted for 2 hours at 37° C. After washing thrice with TPBS, a sample and a standard solution, which were optionally diluted with BSA-PBS, were added at a ratio of 50 μL/well and allowed to stand overnight at 4° C. After washing thrice with TPBS, 100 μL/well of a secondary antibody solution (diluted 2000-fold with BSA-PBS) was pipetted and incubation was conducted for 1 hour at 37° C. After washing thrice with TPBS, 100 μL/well of a color development substrate solution was pipetted and color development was carried out. Then, 100 μL/well of oxalic acid was pipetted to cease the reaction and the absorbance was measured at 415 to 490 nm. As the color development substrate solution, a mixture of a 0.006% H2O2— comprising 0.2 M citrate buffer (pH 4.0), deionized water and a 10.94 mM ABTS solution (10:9:1) was employed. In the case of IgE, the procedure indicated in the protocol attached to a mouse IgE assay kit (Morinaga Biochemistry Lab.) was followed. Absorbance was measured using Immuno Mini NJ-2300 (Nippon Intermed)."}, "[2]": {"system": "high-affinity IgE receptor (FcεRI)", "assay": "FcεRI expression amount on the cell surface of KU812 cells by flow cytometry", "format": "cell-based, human", "details": "for FcεRI expression suppressive rate (%): 24 hours", "experimental": "By using antihuman FcRI antibody (CRA1), the FcεRI expression amount on the surface of human basophil-like cell line KU812 cells was analyzed by flow cytometry. Cells having been incubated by adding DMSO alone were compared with cells having been incubated by adding chrysin. The ratio of overexpression of FcεRI is indicated in percentage. As a basal medium for incubating cells, use was made of RPMI 1640 (Nissui, Japan), to which 100 U/mL of penicillin (Meiji Pharmaceutical Company, Tokyo, Japan), […] of streptomycin (Meiji Pharmaceutical Company, Tokyo, Japan), 12.5 mM of MaHCO3 (Wako Pure Chemical Industries, Osaka, Japan) and 10 mM of HEPES Wako Pure Chemical Industries) had been added. Fetal bovine serum (FBS) purchased form Bio Source International was added to the basal medium to give a concentration of 5 to 10%. Human basophil-like cell line KU812 employed in this experiment was assigned by Japan Collection of Research Bioresources (JCRB) and subcultured and maintained in RPMI 1640 medium comprising 5 to 10% of FBS at 37° C. in 5% CO2 gas under humidification. KU812 cells were incubated in RPMI 1640 medium, to which chrysin dissolved in DMSO had been added, for 0 to 24 hours. A system wherein the cells were incubated in the medium comprising DMSO alone was used as a control. After incubating, the cells were collected and incubated in 5% FBS-PBS, to which 10 μg/mL of antihuman FcεRI α chain mouse monoclonal antibody CRA-1 (Kyokuto Pharmaceutical) had been added, at 4° C. for 40 to 60 min. As a negative control, 10 μg/mL of mouse control IgG2b antibody (DAKO) was used. Then, the cells were washed with ice-cooled PBS once and incubated in 5% FBS-PBS, to which 10 μg/mL of antimouse IgG2b FITC-labeled antibody (Protos Immunoresearch) had been added, at 4° C. for 40 to 60 min. After incubating, the cells were washed with PBS and then resuspended in PBS. The cell suspension thus obtained was analyzed by flow cytometry. In the flow cytometry analysis, FACS Calibur (Becton Sickinson, Sunnyvale, Calif.) was employed. The secondary antibody reaction and the subsequent procedures were conducted in the dark and the cells were preserved on ice while conducting the analysis. KU812 cells (5×10^5 cells/mL) was incubated in 5% bovine fetal serum comprising RPMI 1640 medium, to which chrysin (0, 1, 5 and 10 μM) and apigenin (purchased from Aldrich Chem. Co., St. Louis, Mo.; 0, 1, 5 and 10 μM) had been added, for 24 hours. After incubating, the FcεRI expression level on the cell surface was measured by flow cytometry (experimental procedure: see [0047])."}, "STAT6": {"system": "STAT6", "assay": "Detection of phosphorylated STAT6 in IL-4-treated DND39 cells", "format": "cell-based, human", "details": "IL-4 (100 U/ml), chrysin at various concentrations, 30 min", "experimental": "DND39 cells were treated with IL-4 (100 U/ml) and chrysin at various concentrations and then lysed. Each cell lysate was subjected to immunoprecipitation using anti-STAT6 antibody. The immunoprecipitate was subjected to 8% SDS-PAGE and transferred onto a nitrocellulose membrane and phosphorylated STAT6 was detected. The density of DND39 cells was adjusted to 2×10^6 cells/mL and IL-4 (100 U/mL) and chrysin at each concentration were added thereto. Then, the cells were lysed by treating for 30 min. The cell lysate was subjected to immunoprecipitation using anti-STAT6 antibody. The immunoprecipitate was subjected to 8% SDS-PAGE and blotted onto a nitrocellulose membrane. Then phosphorylated STAT6 was detected using anti-tyrosine phosphorylation antibody (PY20)."}, "[3]": {"details": "serum, day 35, BALB/c mice OVA-sensitized, chrysin-comprising feed 3 weeks"}}, "data": [{"smiles": "O=c1cc(-c2ccccc2)oc2cc(O)cc(O)c12", "note": "[Chrysin, 5,7-dihydroxyflavone]", "values": [{"measurement": "blood IgE level compared with the control group", "setting": "[1]; OVA-sensitized mice, in words", "value": "significantly lowered"}, {"measurement": "effect of chrysin intake on blood IgM, IgG and IgA levels", "setting": "[1]; OVA-sensitized mice, in words, vs control group", "value": "no effect"}, {"measurement": "IgA", "setting": "[1]; [3]", "value": "0.6 ± 0.0", "unit": "mg/mL"}, {"measurement": "IgG", "setting": "[1]; [3]", "value": "23.5 ± 3.0", "unit": "mg/mL"}, {"measurement": "IgM", "setting": "[1]; [3]", "value": "5.4 ± 0.2", "unit": "mg/mL"}, {"measurement": "FcεRI expression amount on cell surface", "setting": "[2]; flow cytometry with CRA1 antibody, compared with DMSO alone", "value": "lowering"}, {"measurement": "FcεRI expression suppressive rate (%)", "setting": "[2]; single agent 1 μM", "value": 0, "unit": "%"}, {"measurement": "FcεRI expression suppressive rate (%)", "setting": "[2]; single agent 5 μM", "value": 11.5, "unit": "%"}, {"measurement": "FcεRI expression suppressive rate (%)", "setting": "[2]; single agent 10 μM", "value": 19.8, "unit": "%"}, {"measurement": "phosphorylation of STAT6", "setting": "STAT6", "value": "suppressed"}]}]}
